Measured values from US20260374756A1, “HETEROCYCLIC COMPOUNDS AS INHIBITORS OF MONOACYLGLYCEROL LIPASE (MAGL)” (Hoffmann-La Roche Inc., priority 2022, published 2026).

molecular target: T1, hMAGL (Homo sapiens, UniProt Q99685); assay: 2-AG assay: MAGL inhibition, hydrolysis of 2-arachidonoylglycerol to arachidonic acid followed by mass spectrometry; type: biochemical
T1 sequence (Q99685 1-303): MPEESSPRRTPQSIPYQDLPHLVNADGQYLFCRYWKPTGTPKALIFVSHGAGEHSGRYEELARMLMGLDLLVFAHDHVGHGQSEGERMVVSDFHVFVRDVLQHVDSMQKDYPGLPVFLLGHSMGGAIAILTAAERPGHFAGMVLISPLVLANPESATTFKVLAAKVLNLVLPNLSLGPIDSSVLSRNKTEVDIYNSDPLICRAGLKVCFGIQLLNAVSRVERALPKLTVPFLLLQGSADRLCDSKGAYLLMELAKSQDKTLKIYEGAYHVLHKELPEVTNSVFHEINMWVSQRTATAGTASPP
Method in brief: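 MAGL preincubated with compound 15 min at RT in 50 mM Tris, 1 mM EDTA, 0.01% Tween-20, 2.5% DMSO; reaction started with 8 μM 2-AG (final), […], 30 min at RT. Quenched with acetonitrile containing d8-arachidonic acid; arachidonic acid quantified by RapidFire SPE-triple quad MS as arachidonic acid/d8 ratio.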

In order of falling IC50:
1. O=C(N1CC2(CC(n3cnc(C(F)(F)F)n3)C2)C1)N1CC2(CN(Cc3cn(CC(F)(F)F)nn3)C2)C1 [Example 107, [6-[[1-(2,2,2-trifluoroethyl)triazol-4-yl]methyl]-2,6-diazaspiro[3.3]heptan-2-yl]-[6-[3-(trifluoromethyl)-1,2,4-triazol-1-yl]-2-azaspiro[3.3]heptan-2-yl]methanone]  2670 nM
2. O=C(N1CC2(CC(n3cnc(C4(O)CC4)n3)C2)C1)N1CC2(CN(Cc3nnc(C(F)(F)F)s3)C2)C1 [Example 84, [6-[3-(1-hydroxycyclopropyl)-1,2,4-triazol-1-yl]-2-azaspiro[3.3]heptan-2-yl]-[6-[[5-(trifluoromethyl)-1,3,4-thiadiazol-2-yl]methyl]-2,6-diazaspiro[3.3]heptan-2-yl]methanone]  2090 nM
3. Cn1cc(OC2CC3(C2)CN(C(=O)N2CC4(CC(n5cnc(C6(O)CC6)n5)C4)C2)C3)cn1 [Example 88, [6-[3-(1-hydroxycyclopropyl)-1,2,4-triazol-1-yl]-2-azaspiro[3.3]heptan-2-yl]-[6-(1-methylpyrazol-4-yl)oxy-2-azaspiro[3.3]heptan-2-yl]methanone]  1370 nM
4. O=C(N1CC2(CC(n3cnc(C(F)(F)F)n3)C2)C1)N1CC2(CN(Cc3ccn(CC(F)(F)F)n3)C2)C1 [Example 99, [6-[[1-(2,2,2-trifluoroethyl)pyrazol-3-yl]methyl]-2,6-diazaspiro[3.3]heptan-2-yl]-[6-[3-(trifluoromethyl)-1,2,4-triazol-1-yl]-2-azaspiro[3.3]heptan-2-yl]methanone]  386 nM
5. Cc1nc(C(F)(F)F)c(CN2CC3(C2)CN(C(=O)N2CC4(CC(n5cnc(C6(O)CC6)n5)C4)C2)C3)s1 [Example 87, [6-[3-(1-hydroxycyclopropyl)-1,2,4-triazol-1-yl]-2-azaspiro[3.3]heptan-2-yl]-[6-[[2-methyl-4-(trifluoromethyl)thiazol-5-yl]methyl]-2,6-diazaspiro[3.3]heptan-2-yl]methanone]  351 nM
6. O=C(N1CC2(CC(n3cnc(C(F)(F)F)n3)C2)C1)N1CC2(CN(Cc3snnc3C3CC3)C2)C1 [Example 89, [6-[(4-cyclopropylthiadiazol-5-yl)methyl]-2,6-diazaspiro[3.3]heptan-2-yl]-[6-[3-(trifluoromethyl)-1,2,4-triazol-1-yl]-2-azaspiro[3.3]heptan-2-yl]methanone]  312 nM
7. O=C(N1CC2(CCN(Cc3cc(C(F)(F)F)on3)CC2)C1)N1CC2(CC(n3cnc(C4(O)CC4)n3)C2)C1 [Example 81, [6-[3-(1-hydroxycyclopropyl)-1,2,4-triazol-1-yl]-2-azaspiro[3.3]heptan-2-yl]-[7-[[5-(trifluoromethyl)isoxazol-3-yl]methyl]-2,7-diazaspiro[3.5]nonan-2-yl]methanone]  251 nM
8. O=C(N1CC2(CC(n3cnc(C4CC4)n3)C2)C1)N1CC2(CN(Cc3snnc3C3CC3)C2)C1 [Example 90, [6-[(4-cyclopropylthiadiazol-5-yl)methyl]-2,6-diazaspiro[3.3]heptan-2-yl]-[6-(3-cyclopropyl-1,2,4-triazol-1-yl)-2-azaspiro[3.3]heptan-2-yl]methanone]  223 nM
9. O=C(N1CC2(CC(n3cnc(C(F)(F)F)n3)C2)C1)N1CC2(CN(Cc3nnc(C(F)(F)F)s3)C2)C1 [Example 82, [6-[[5-(trifluoromethyl)-1,3,4-thiadiazol-2-yl]methyl]-2,6-diazaspiro[3.3]heptan-2-yl]-[6-[3-(trifluoromethyl)-1,2,4-triazol-1-yl]-2-azaspiro[3.3]heptan-2-yl]methanone]  145 nM
10. O=C(N1CC2(CC(n3cnc(C4CC4)n3)C2)C1)N1CC2(CN(Cc3ccn(CC(F)(F)F)n3)C2)C1 [Example 100, [6-(3-cyclopropyl-1,2,4-triazol-1-yl)-2-azaspiro[3.3]heptan-2-yl]-[6-[[1-(2,2,2-trifluoroethyl)pyrazol-3-yl]methyl]-2,6-diazaspiro[3.3]heptan-2-yl]methanone]  92.6 nM
11. O=C(N1CC2(CC(n3cnc(C4CC4)n3)C2)C1)N1CC2(CN(Cc3nnc(C(F)(F)F)s3)C2)C1 [Example 83, [6-(3-cyclopropyl-1,2,4-triazol-1-yl)-2-azaspiro[3.3]heptan-2-yl]-[6-[[5-(trifluoromethyl)-1,3,4-thiadiazol-2-yl]methyl]-2,6-diazaspiro[3.3]heptan-2-yl]methanone]  66.8 nM
12. Cc1nc(C(F)(F)F)c(CN2CC3(C2)CN(C(=O)N2CC4(CC(n5cnc(C(F)(F)F)n5)C4)C2)C3)s1 [Example 85]  37.1 nM
13. O=C(N1CC2(CC(Cc3noc(C(F)(F)F)n3)C2)C1)N1CC2(CC(n3cnc(C4(O)CC4)n3)C2)C1 [Example 105]  14.1 nM
14. O=C(N1CC2(CC(Cc3nc(C(F)(F)F)cs3)C2)C1)N1CC2(CC(n3cnc(C4(O)CC4)n3)C2)C1 [Example 106, [6-[3-(1-hydroxycyclopropyl)-1,2,4-triazol-1-yl]-2-azaspiro[3.3]heptan-2-yl]-[6-[[4-(trifluoromethyl)thiazol-2-yl]methyl]-2-azaspiro[3.3]heptan-2-yl]methanone]  8.94 nM
15. Cc1cc(C(F)F)n(CC2CC3(C2)CN(C(=O)N2CC4(CC(n5cnc(C6(O)CC6)n5)C4)C2)C3)n1 [Example 93, [6-[[5-(difluoromethyl)-3-methyl-pyrazol-1-yl]methyl]-2-azaspiro[3.3]heptan-2-yl]-[6-[3-(1-hydroxycyclopropyl)-1,2,4-triazol-1-yl]-2-azaspiro[3.3]heptan-2-yl]methanone]  5.48 nM
16. CC(C)(C)c1coc(CN2CC3(C2)CN(C(=O)N2CC4(CC(n5cnc(C(F)(F)F)n5)C4)C2)C3)n1 [Example 97, [6-[(4-tert-butyloxazol-2-yl)methyl]-2,6-diazaspiro[3.3]heptan-2-yl]-[6-[3-(trifluoromethyl)-1,2,4-triazol-1-yl]-2-azaspiro[3.3]heptan-2-yl]methanone]  4.12 nM
17. Cc1cc(C(F)F)nn1CC1CC2(C1)CN(C(=O)N1CC3(CC(n4cnc(C5(O)CC5)n4)C3)C1)C2 [Example 96, [6-[[3-(difluoromethyl)-5-methyl-pyrazol-1-yl]methyl]-2-azaspiro[3.3]heptan-2-yl]-[6-[3-(1-hydroxycyclopropyl)-1,2,4-triazol-1-yl]-2-azaspiro[3.3]heptan-2-yl]methanone]  3.05 nM
18. Cc1nc(C(F)(F)F)c(CN2CC3(C2)CN(C(=O)N2CC4(CC(n5cnc(C6CC6)n5)C4)C2)C3)s1 [Example 86, [6-(3-cyclopropyl-1,2,4-triazol-1-yl)-2-azaspiro[3.3]heptan-2-yl]-[6-[[2-methyl-4-(trifluoromethyl)thiazol-5-yl]methyl]-2,6-diazaspiro[3.3]heptan-2-yl]methanone]  2.65 nM
19. O=C(N1CC2(CC(Cn3cc(C(F)(F)F)nn3)C2)C1)N1CC2(CC(c3cc(C4CC4)n[nH]3)C2)C1 [Example 103, [6-(3-cyclopropyl-1H-pyrazol-5-yl)-2-azaspiro[3.3]heptan-2-yl]-[6-[[4-(trifluoromethyl)triazol-1-yl]methyl]-2-azaspiro[3.3]heptan-2-yl]methanone]  1.63 nM
20. O=C(N1CC2(CC(Cn3cc(C(F)(F)F)nn3)C2)C1)N1CC2(CC(n3cnc(C4CC4)n3)C2)C1 [Example 104, [6-(3-cyclopropyl-1,2,4-triazol-1-yl)-2-azaspiro[3.3]heptan-2-yl]-[6-[[4-(trifluoromethyl)triazol-1-yl]methyl]-2-azaspiro[3.3]heptan-2-yl]methanone]  1.45 nM
21. Cc1cc(C(F)F)n(CC2CC3(C2)CN(C(=O)N2CC4(CC(n5cnc(C(F)(F)F)n5)C4)C2)C3)n1 [Example 91, [6-[[5-(difluoromethyl)-3-methyl-pyrazol-1-yl]methyl]-2-azaspiro[3.3]heptan-2-yl]-[6-[3-(trifluoromethyl)-1,2,4-triazol-1-yl]-2-azaspiro[3.3]heptan-2-yl]methanone]  1.02 nM
22. CC(C)(C)c1coc(CN2CC3(C2)CN(C(=O)N2CC4(CC(n5cnc(C6CC6)n5)C4)C2)C3)n1 [Example 98, [6-[(4-tert-butyloxazol-2-yl)methyl]-2,6-diazaspiro[3.3]heptan-2-yl]-[6-(3-cyclopropyl-1,2,4-triazol-1-yl)-2-azaspiro[3.3]heptan-2-yl]methanone]  0.96 nM
23. O=C(N1CC2(CC(Cc3n[nH]c(C4(C(F)(F)F)CC4)n3)C2)C1)N1CC2(CC(n3cnc(C(F)(F)F)n3)C2)C1 [Example 101, [6-[[5-[1-(trifluoromethyl)cyclopropyl]-1H-1,2,4-triazol-3-yl]methyl]-2-azaspiro[3.3]heptan-2-yl]-[6-[3-(trifluoromethyl)-1,2,4-triazol-1-yl]-2-azaspiro[3.3]heptan-2-yl]methanone]  0.89 nM
24. O=C(N1CC2(CC(Cc3n[nH]c(C4(C(F)(F)F)CC4)n3)C2)C1)N1CC2(CC(n3cnc(C4CC4)n3)C2)C1 [Example 102, [6-(3-cyclopropyl-1,2,4-triazol-1-yl)-2-azaspiro[3.3]heptan-2-yl]-[6-[[5-[1-(trifluoromethyl)cyclopropyl]-1H-1,2,4-triazol-3-yl]methyl]-2-azaspiro[3.3]heptan-2-yl]methanone]  0.58 nM
25. Cc1cc(C(F)F)nn1CC1CC2(C1)CN(C(=O)N1CC3(CC(n4cnc(C(F)(F)F)n4)C3)C1)C2 [Example 94]  0.4 nM
26. Cc1cc(C(F)F)n(CC2CC3(C2)CN(C(=O)N2CC4(CC(n5cnc(C6CC6)n5)C4)C2)C3)n1 [Example 92]  0.21 nM
27. Cc1cc(C(F)F)nn1CC1CC2(C1)CN(C(=O)N1CC3(CC(n4cnc(C5CC5)n4)C3)C1)C2 [Example 95, [6-(3-cyclopropyl-1,2,4-triazol-1-yl)-2-azaspiro[3.3]heptan-2-yl]-[6-[[3-(difluoromethyl)-5-methyl-pyrazol-1-yl]methyl]-2-azaspiro[3.3]heptan-2-yl]methanone]  0.2 nM
